Results from patent US12036195B2, “Co-crystals of NURR1-lbd in complex with a cyclopentenone prostaglandin and modulators of NURR1” (Nanyang Technological University, priority 2016, dated 2024).

Legend:
[1] = molecular target: T1, Nurr1 (Homo sapiens, UniProt P43354); details: binding with Nurr1-LBD at its non-canonical ligand-binding site; cited from earlier work
[2] = molecular target: T1, Nurr1; details: high throughput screening of >340,000 compounds; cited from earlier work
[3] = molecular target: T2, Nurr1-LBD (Homo sapiens, UniProt P43354); test: 2D 1H-15N HSQC NMR chemical shift perturbation on Nurr1-LBD; type: binding; details: 15N-labeled Nurr1-LBD, 1:10 molar ratio protein:ligand; residues in helix 11 and 12 perturbed
T2 construct: The human Nurr1-LBD construct coding for residues 328-598 (hNurr1-LBD) was cloned into pETSUMO expression vector; SUMO tag (pETSUMO vector, purified on Ni2+-NTA) (cleaved yes); made in house; host or cells: E. coli BL21 (DE3)
T2 sequence (P43354 328-598): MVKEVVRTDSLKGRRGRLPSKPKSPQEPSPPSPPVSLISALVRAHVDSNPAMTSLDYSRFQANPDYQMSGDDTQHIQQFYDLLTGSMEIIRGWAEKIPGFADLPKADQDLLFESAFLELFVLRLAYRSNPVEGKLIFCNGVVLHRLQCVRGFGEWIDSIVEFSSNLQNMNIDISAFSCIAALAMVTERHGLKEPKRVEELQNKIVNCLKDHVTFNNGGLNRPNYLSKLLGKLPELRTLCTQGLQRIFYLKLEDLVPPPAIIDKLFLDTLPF
Description: 0.2 mM uniformly ^15-N labeled Nurr1-LBD protein was prepared in 20 mM sodium phosphate buffer containing 50 mM NaCl, 0.01% NaN3 (pH 7.5) in 90% H2O/10% D2O. The interaction between Nurr1-LBD and PGA1/PGA2 (in DMSO vehicle) was examined using two dimensional HSQC comparing free protein sample with 1:10 molar ratio of Nurr1-LBD:PGA1/PGA2. The backbone resonance and sequence specific resonance assignments were previously assigned for Nurr1-LBD as reported (Kim, et. al. Proc Nat Acad Sci 112, 8756-8761 (2015)). The binding sites of PGA1/PGA2 were mapped on the crystal structure of Nurr1-LBD (PDB code: 1OVL) after determining the chemical shift perturbations following the addition of PGA1/PGA2 against the spectrum of the free protein. Bruker Avance II 700 MHz spectrometer fitted with a 5 mm triple resonance, z-axis-gradient cryoprobe at 298K was used for all NMR experiments. All spectra were processed directly to SPARKY format in UNIX and analyzed using the SPARKY 3.114 program (Goddard and Kneller, SPARKY In, 3.114 Edition: Univ of Calif (2002)).
Prostaglandins are a family of biologically potent lipids from membrane phospholipids; comprised of a C20-unsaturated fatty acid containing a cyclopentenone ring. […]

[4] = molecular target: T2, Nurr1-LBD; test: Top-down mass spectrometry of covalent coupling to Nurr1-LBD; type: binding; details: overnight incubation at 1:1.5 molar ratio
Description: Nurr1-LBD at ˜300 μM prepared in 0.1% FA in water was analyzed using a Dionex UltiMate 3000 UHPLC coupled to a linear quadrupole ion trap-Fourier transform Ultra apparatus (LTQ-FT Ultra, Thermo Scientific Inc.). Protein solution (5 μL) was injected directly into the detector carried by 0.1% FA in water at 500 μL/min. On-line ionization was performed using a Michrom CaptiveSpray ion source (Bruker-Michrom Inc., Auburn, USA) at an electrospray potential of 1.5 kV and capillary temperature of 200° C. Data acquisition was conducted in profile and positive mode (600-1600 m/z range). Mass spectrometry (MS) data was acquired for 60 min in the FT-ICR cell at a resolution of 100,000 (at 400 m/z) and maximum injection time of 500 msec using Xcalibur version 2.0 SR2 (Thermo Scientific Inc., Bremen, Germany). The automatic gain control target for FT-ICR was set to 5.0e+05. For each scan 100 microscans were averaged. […]
To exclude the possibility that the covalent coupling of PGA1/PGA2 to human Nurr1-LBD domain seen in the crystal structures was an artifact of crystallization or exposure to high-intensity X-rays, Nurr1-LBD at ˜ 300 μM prepared in 0.1% FA in water was analyzed using a Dionex UltiMate 3000 UHPLC coupled to a linear quadrupole ion trap-Fourier transform Ultra apparatus (LTQ-FT Ultra, Thermo Scientific Inc.). […]

[5] = tested on: LRRK2 G2019S Drosophila; test: Climbing assay and survival in LRRK2 G2019S Drosophila; type: in vivo, Drosophila melanogaster
Description: FIG. 4. Mitigation of locomotor deficits and mortality in LRRK2 G2019S Drosophila by CyPGs. Drosophila melanogaster expressing LRRK2 G2019S mutation driven by ddc-Gal4 result in late-onset PD in these flies. Treatment with 50 μM PGA2 was able to improve their climbing ability from 9.7% to 36.4% when compared to age-matched mutant flies (0.5% EtOH drug vehicle). Survival rate was determined by counting the number of flies that survived every 2-3 days for 55 days post-eclosion. Flies were treated with cornmeal-agar medium containing 50 μM PGA2 for 25 days at day 30 post-eclosion and climbing assay was carried out on day 55. The number of flies that climbed beyond a median line in a vertical column (length 25 cm; diameter 1.5 cm) were counted after one minute for an average of six times. Results represent mean±SEM of climbing scores from three independent experiments. Student's t-test (unpaired) was conducted to determine statistical significance between G2019S (vehicle treated) and PGA2-treated mutant flies: *p<0.05.
Flies expressing Leucine-rich repeat kinase 2 (LRRK2) with G2019S mutation driven by dopa decarboxylase (ddc)-Gal4 leads to late-onset PD in these flies (Liu, et al. Proc Natl Acad Sci USA 105, 2693-2698, doi:10.1073/pnas.0708452105 (2008)). […]

[6] = tested on: HL60 cells; details: direct interaction with mitochondria; cited from earlier work

T1 sequence (P43354 whole entry, species assumed, the tested form may be a part): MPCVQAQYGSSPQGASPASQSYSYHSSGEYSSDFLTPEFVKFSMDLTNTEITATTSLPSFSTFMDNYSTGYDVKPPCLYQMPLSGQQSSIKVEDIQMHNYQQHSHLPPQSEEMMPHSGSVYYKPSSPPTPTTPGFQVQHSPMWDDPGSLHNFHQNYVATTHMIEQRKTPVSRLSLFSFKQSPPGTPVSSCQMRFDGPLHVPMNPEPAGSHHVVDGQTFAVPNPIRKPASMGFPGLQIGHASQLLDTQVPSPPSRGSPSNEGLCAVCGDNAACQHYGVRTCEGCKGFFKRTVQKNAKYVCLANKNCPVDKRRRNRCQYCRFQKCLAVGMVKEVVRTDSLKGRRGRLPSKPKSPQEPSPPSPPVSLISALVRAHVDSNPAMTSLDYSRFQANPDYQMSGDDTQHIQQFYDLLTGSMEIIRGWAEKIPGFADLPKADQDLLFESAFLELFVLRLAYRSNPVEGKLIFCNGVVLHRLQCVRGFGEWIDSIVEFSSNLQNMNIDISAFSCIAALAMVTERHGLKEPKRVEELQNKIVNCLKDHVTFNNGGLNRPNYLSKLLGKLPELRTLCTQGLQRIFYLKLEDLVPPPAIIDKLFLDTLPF

Row | SMILES | transcriptional function of Nurr1 [1] | interaction with Nurr1-LBD by chemical shift perturbations [3] | fraction of Nurr1 that binds the ligand covalently [4] | further results
1 | CCN(CC)Cc1cc(Nc2ccnc3cc(Cl)ccc23)ccc1O [amodiaquine] | enhance the transcriptional function of Nurr1 | – | – | –
2 | Sc1ncnc2nc[nH]c12 [6-mercaptopurine] | – | – | – | activation of Nurr1 [2]: activate Nurr1 through a region in the amino terminus lacking a LBD
3 | CCN(CC)CCCC(C)Nc1ccnc2cc(Cl)ccc12 (stereo not shown) [chloroquine] | enhance the transcriptional function of Nurr1 | – | – | –
4 | CCCCCC(O)/C=C/[C@H]1C=CC(=O)[C@@H]1CCCCCCC(=O)O (stereo partly shown) [PGA1, prostaglandin A1] | – | direct physical interaction | about 50% | –
5 | CCCCCC(O)/C=C/[C@H]1C=CC(=O)[C@@H]1C/C=C\CCCC(=O)O (stereo partly shown) [PGA2, prostaglandin A2] | – | direct physical interaction | about 50% | climbing ability ([5]; 50 μM in medium for 25 days from day 30 post-eclosion, assay on day 55, vehicle-treated mutant flies 9.7%): 36.4%; overall survival rate ([5]; PGA2 treated flies compared to vehicle treated mutant flies, 55 days post-eclosion): improvement to their overall survival rate; apoptosis in HL60 cells [6]: induce intrinsic apoptosis in HL60 cells
